Article PMC10999085, “Synthesis, anticancer evaluation, molecular docking and ADME study of novel pyrido[4ʹ,3ʹ:3,4]pyrazolo[1,5-a]pyrimidines as potential tropomyosin receptor kinase A (TrKA) inhibitors” (BMC Chemistry, 2024)

Experiments:
HepG2 cell line = assay: MTT assay, HepG2 cell line; assay type: cell-based, human; settings: MTT, 24 hr treatment, in % (unit assumed); for Cytotoxicity at 5 µg/l: HepG2, 5 µg/l; for Cytotoxicity at 10 µg/l: HepG2, 10 µg/l; for Cytotoxicity at 20 µg/l: HepG2, 20 µg/l
Description: (§1) Determination of the inhibitory effects of compounds on cell growth was performed through the MTT assay. This colorimetric assay is based on the conversion of the yellow tetrazolium bromide (MTT) to a purple formazan derivative by mitochondrial succinate dehydrogenase in viable cells. The protocol was discussed in details in Additional file 1.
(§2) Compounds 1, 4a,b, 7a–c, 7k, l, 9a–c, 14a, 15b, 16a–c were selected to be investigated against three human cancer cell lines MCF7, HepG2 and HCT116 cell lines using MTT assay using doxorubicin as the standard drug. Each point is the mean ± SD (standard deviation) of three independent experiments performed in triplicate, using the prism software program (integrated Graphpad software, version 3).
(§3) Cell lines were used to measure the cell growth effects of the compounds using the MTT assay. This colorimetric assay is depend on the conversion of the yellow tetrazolium bromide (MTT) to a purple formazan derivative by mitochondrial succinate dehydrogenase in living cells. Cell lines were cultured in RPMI-1640 medium supplemented with 10% fetal bovine serum. The antibiotics added were 100 units/ml penicillin and 100 µg/ml streptomycin at 37 °C in a 5% CO2 incubator. Cell lines were seeded in a 96-well plates at a density of 1.0x10^4 cells/well and cultured at 37 °C for 48 h under 5% CO2. After incubation, the cells were treated with different concentrations of compounds and incubated for 24 hr. After 24 hr of drug treatment, 20 µl of MTT solution at 5 mg/ml was added to each well and incubated for 4 hr. 100 µl of dimethyl sulfoxide (DMSO) was added into each well to dissolve the purple formazan formed. The colorimetric assay was measured and recorded at absorbance of 570 nm using a plate reader (EXL 800, USA). Relative cell viability (%) was calculated as (A570 of treated sample/A570 of untreated sample) x 100 [36, 37].

HCT-116 cell line = assay: MTT assay, HCT-116 cell line; assay type: cell-based, human; settings: MTT, 24 hr treatment, in % (unit assumed); for Cytotoxicity at 5 µg/l: HCT116, 5 µg/l; for Cytotoxicity at 10 µg/l: HCT116, 10 µg/l; for Cytotoxicity at 20 µg/l: HCT116, 20 µg/l
Description: as §1, §2, §3

MCF7 cell line = assay: MTT assay, MCF7 cell line; assay type: cell-based, human; settings: 24 hr treatment, in % (unit assumed); for Cytotoxicity at 5 µg/l: MCF7, 5 µg/l; for Cytotoxicity at 10 µg/l: MCF7, 10 µg/l; for Cytotoxicity at 20 µg/l: MCF7, 20 µg/l
Description: as §1, §2, §3

O=C1NC(=O)c2c(nn3c(-c4ccccc4)cc(-c4ccccc4)nc23)C1=Cc1ccccc1 [Compound 7k, 7-Benzylidene-2,4-diphenylpyrido[4ʹ,3ʹ:3,4]pyrazolo[1,5-a]pyrimidine-8,10(7H,9H)-dione]
Cytotoxicity at 5 µg/l (HepG2 cell line): 41.84
Cytotoxicity at 10 µg/l (HepG2 cell line): 88.59
Cytotoxicity at 20 µg/l (HepG2 cell line): 90.19
Cytotoxicity at 5 µg/l (HCT-116 cell line): 39.48
Cytotoxicity at 10 µg/l (HCT-116 cell line): 46.55
Cytotoxicity at 20 µg/l (HCT-116 cell line): 62.92
Cytotoxicity at 5 µg/l (MCF7 cell line): 36.19
Cytotoxicity at 10 µg/l (MCF7 cell line): 55.16
Cytotoxicity at 20 µg/l (MCF7 cell line): 71.12
melting point: 275 °C

Cc1cc(O)n2nc3c(c2n1)C(=O)NC(=O)C3 [Compound 14a, 4-Hydroxy-2-methylpyrido[4ʹ,3ʹ:3,4]pyrazolo[1,5-a]pyrimidine-8,10(7H,9H)-dione]
Cytotoxicity at 5 µg/l (HepG2 cell line): 11.39
Cytotoxicity at 10 µg/l (HepG2 cell line): 40.75
Cytotoxicity at 20 µg/l (HepG2 cell line): 83.75
Cytotoxicity at 5 µg/l (HCT-116 cell line): 28.84
Cytotoxicity at 10 µg/l (HCT-116 cell line): 55.79
Cytotoxicity at 20 µg/l (HCT-116 cell line): 58.72
Cytotoxicity at 5 µg/l (MCF7 cell line): 25.14
Cytotoxicity at 10 µg/l (MCF7 cell line): 48.62
Cytotoxicity at 20 µg/l (MCF7 cell line): 77.19
melting point: > 360 °C

O=C1Cc2nn3c(-c4ccccc4)cc(-c4ccccc4)nc3c2C(=O)N1 [Compound 4b, 2,4-Diphenylpyrido[4ʹ,3ʹ:3,4]pyrazolo[1,5-a]pyrimidine-8,10(7H,9H)-dione]
Cytotoxicity at 5 µg/l (HepG2 cell line): 38.14
Cytotoxicity at 10 µg/l (HepG2 cell line): 43.81
Cytotoxicity at 20 µg/l (HepG2 cell line): 76.43
Cytotoxicity at 5 µg/l (HCT-116 cell line): 7.31
Cytotoxicity at 10 µg/l (HCT-116 cell line): 21.33
Cytotoxicity at 20 µg/l (HCT-116 cell line): 66.23
Cytotoxicity at 5 µg/l (MCF7 cell line): 22.19
Cytotoxicity at 10 µg/l (MCF7 cell line): 55.85
Cytotoxicity at 20 µg/l (MCF7 cell line): 70.37
melting point: 300 °C

O=C1NC(=O)c2c(nn3c(-c4ccccc4)cc(-c4ccccc4)nc23)C1=Cc1ccco1 [Compound 7r, 7-(Furan-2-ylmethylene)-2,4-diphenylpyrido[4ʹ,3ʹ:3,4]pyrazolo[1,5-a]pyrimidine-8,10(7H,9H)-dione]
melting point: 335 °C

Cc1ccc(NN=C2C(=O)NC(=O)c3c2nn2c(O)cc(-c4ccccc4)nc32)cc1 [Compound 16f, 4-Hydroxy-2-phenyl-7-(2-(p-tolyl)hydrazono)pyrido[4ʹ,3ʹ:3,4]pyrazolo[1,5-a]pyrimidine-8,10(7H,9H)-dione]
melting point: 320 °C

Cc1cc(C)n2nc3c(c2n1)C(=O)NC(=O)C3=Cc1ccccc1O [Compound 7d, 7-(2-Hydroxybenzylidene)-2,4-dimethylpyrido[4ʹ,3ʹ:3,4]pyrazolo[1,5-a]pyrimidine-8,10(7H,9H)-dione]
melting point: > 360 °C

COc1ccc(C=C2C(=O)NC(=O)c3c2nn2c(O)cc(-c4ccccc4)nc32)cc1 [Compound 15e, 4-Hydroxy-7-(4-methoxybenzylidene)-2-phenylpyrido[4ʹ,3ʹ:3,4]pyrazolo[1,5-a]pyrimidine-8,10(7H,9H)-dione]
melting point: 300 °C

Cc1cc(O)n2nc3c(c2n1)C(=O)NC(=O)C3=Cc1ccccc1 [Compound 15a, 7-Benzylidene-4-hydroxy-2-methylpyrido[4ʹ,3ʹ:3,4]pyrazolo[1,5-a]pyrimidine-8,10(7H,9H)-dione]
melting point: 305 °C

Cc1cc(O)n2nc3c(c2n1)C(=O)NC(=O)C3=Cc1ccc(Cl)cc1 [Compound 15c, 7-(4-Chlorobenzylidene)-4-hydroxy-2-methylpyrido[4ʹ,3ʹ:3,4]pyrazolo[1,5-a]pyrimidine-8,10(7H,9H)-dione]
melting point: 330 °C

O=C1NC(=O)c2c(nn3c(O)cc(-c4ccccc4)nc23)C1=NNc1ccc(Cl)cc1 [Compound 16h, 7-(2-(4-Chlorophenyl)hydrazono)-4-hydroxy-2-phenylpyrido[4ʹ,3ʹ:3,4]pyrazolo[1,5-a]pyrimidine-8,10(7H,9H)-dione]
melting point: 330 °C

O=C1NC(=O)c2c(nn3c(-c4ccccc4)cc(-c4ccccc4)nc23)C1=NNc1ccccc1 [Compound 11a, 2,4-Diphenyl-7-(2-phenylhydrazono)pyrido[4ʹ,3ʹ:3,4]pyrazolo[1,5-a]pyrimidine-8,10(7H,9H)-dione]
melting point: 315 °C

O=C1NC(=O)c2c(nn3c(-c4ccccc4)cc(-c4ccccc4)nc23)C1=Cc1ccncc1 [Compound 7t, 2,4-Diphenyl-7-(pyridin-4-ylmethylene)pyrido[4ʹ,3ʹ:3,4]pyrazolo[1,5-a]pyrimidine-8,10(7H,9H)-dione]
melting point: 340 °C

O=C1NC(=O)c2c(nn3c(-c4ccccc4)cc(-c4ccccc4)nc23)C1=Cc1ccc2c(c1)OCO2 [Compound 7q, 7-(Benzo[d][1,3]dioxol-5-ylmethylene)-2,4-diphenylpyrido[4ʹ,3ʹ:3,4]pyrazolo[1,5-a]-pyrimidine-8,10(7H,9H)-dione]
melting point: 335 °C

O=C1NC(=O)c2c(nn3c(O)cc(-c4ccccc4)nc23)C1=Cc1ccccc1 [Compound 15d, 7-Benzylidene-4-hydroxy-2-phenylpyrido[4ʹ,3ʹ:3,4]pyrazolo[1,5-a]pyrimidine-8,10(7H,9H)-dione]
melting point: 300 °C

O=C1NC(=O)c2c(nn3c(-c4ccccc4)cc(-c4ccccc4)nc23)C1=NNc1ccc(Cl)cc1 [Compound 11d, 7-(2-(4-Chlorophenyl)hydrazono)-2,4-diphenylpyrido[4ʹ,3ʹ:3,4]pyrazolo[1,5-a]pyrimidine-8,10(7H,9H)-dione]
melting point: 335 °C

Cc1cc(C)n2nc3c(c2n1)C(=O)NC(=O)C3=Cc1ccncc1 [Compound 7j, 2,4-Dimethyl-7-(pyridin-4-ylmethylene)pyrido[4ʹ,3ʹ:3,4]pyrazolo[1,5-a]pyrimidine-8,10(7H,9H)-dione]
melting point: 270 °C

COc1cc(C=C2C(=O)NC(=O)c3c2nn2c(C)cc(C)nc32)cc(OC)c1OC [Compound 7f, 2,4-Dimethyl-7-(3,4,5-trimethoxybenzylidene)pyrido[4ʹ,3ʹ:3,4]pyrazolo[1,5-a]pyrimidine-8,10(7H,9H)-dione]
melting point: 240 °C

Cc1cc(O)n2nc3c(c2n1)C(=O)NC(=O)C3=NNc1ccc(Cl)cc1 [Compound 16d, 7-(2-(4-Chlorophenyl)hydrazono)-4-hydroxy-2-methylpyrido[4ʹ,3ʹ:3,4]pyrazolo[1,5-a]pyrimidine-8,10(7H,9H)-dione]
melting point: 310 °C

Cc1cc(C)n2nc3c(c2n1)C(=O)NC(=O)C3=Cc1ccc2c(c1)OCO2 [Compound 7g, 7-(Benzo[d][1,3]dioxol-5-ylmethylene)-2,4-dimethylpyrido[4ʹ,3ʹ:3,4]pyrazolo[1,5-a]-pyrimidine-8,10(7H,9H)-dione]
melting point: 300 °C

Cc1cc(C)n2nc3c(c2n1)C(=O)NC(=O)C3=Cc1cccs1 [Compound 7i, 2,4-Dimethyl-7-(thiophen-2-ylmethylene)pyrido[4ʹ,3ʹ:3,4]pyrazolo[1,5-a]pyrimidine-8,10(7H,9H)-dione]
melting point: 290 °C

COc1cc(C=C2C(=O)NC(=O)c3c2nn2c(-c4ccccc4)cc(-c4ccccc4)nc32)cc(OC)c1OC [Compound 7p, 2,4-Diphenyl-7-(3,4,5-trimethoxybenzylidene)pyrido[4ʹ,3ʹ:3,4]pyrazolo[1,5-a]-pyrimidine-8,10(7H,9H)-dione]
melting point: 315 °C

O=C1Cc2nn3c(O)cc(-c4ccccc4)nc3c2C(=O)N1 [Compound 14b, 4-Hydroxy-2-phenylpyrido[4ʹ,3ʹ:3,4]pyrazolo[1,5-a]pyrimidine-8,10(7H,9H)-dione]
melting point: 310 °C
